Reference: ChEMBL document CHEMBL1128653, “Synthesis of 4-fluoroadenosine as an inhibitor of S-adenosyl-L-homocysteine hydrolase” (Bioorg Med Chem Lett, 1995)

B1: Adenosylhomocysteinase (Rattus norvegicus), P10760 (protein)
chain: MADKLPYKVADIGLAAWGRKALDIAENEMPGLMRMREMYSASKPLKGARIAGCLHMTVETAVLIETLVALGAEVRWSSCNIFSTQDHAAAAIAKAGIPVFAWKGETDEEYLWCIEQTLHFKDGPLNMILDDGGDLTNLIHTKHPQLLSGIRGISEETTTGVHNLYKMMANGILKVPAINVNDSVTKSKFDNLYGCRESLIDGIKRATDVMIAGKVAVVAGYGDVGKGCAQALRGFGARVIITEIDPINALQAAMEGYEVTTMDEACKEGNIFVTTTGCVDIILGRHFEQMKDDAIVCNIGHFDVEIDVKWLNENAVEKVNIKPQVDRYLLKNGHRIILLAEGRLVNLGCAMGHPSFVMSNSFTNQVMAQIELWTHPDKYPVGVHFLPKKLDEAVAEAHLGKLNVKLTKLTEKQAQYLGMPINGPFKPDHYRY

Assays:
[1] = biological target: T1, Adenosylhomocysteinase (Rattus norvegicus) (UniProt P10760); test: Inhibitory activity against rat liver S-adenosyl-L-homocysteine hydrolase
T1 sequence (whole entry): B1 chain

Adenosylhomocysteinase = biological target: T2, Adenosylhomocysteinase (Rattus norvegicus, UniProt P10760); test: Inhibitory constant against rat liver S-adenosyl-L-homocysteine hydrolase
T2 sequence (P10760 whole entry): B1 chain

[2] = substrate: Nc1ncnc2c1ncn2C1O[C@](F)(CO)[C@@H](O)[C@H]1O; test: Michaelis constant towards rat liver S-adenosyl-L-homocysteine hydrolase was calculated

| Molecule | kinact [1] | Ki (Adenosylhomocysteinase) | Km [2] |
| --- | --- | --- | --- |
| Nc1ncnc2c1ncn2C1O[C@](F)(CO)[C@@H](O)[C@H]1O (stereo partly drawn) | 0.24 min⁻¹ | 166 µM |  |
| B1 |  |  | 1 µM |
